From patent US7884120B2, “2,4,5-trisubstituted imidazoles and their use as anti-microbial agents” (Lorus Therapeutics Inc., priority 2002, dated 2011)
In brackets after ≈: the same amount, converted by molar mass. Read-outs that look alike come from different tables or passages of the source. Blank lines part the entries; values can stand above or below the compound they belong to.

What was measured:
[1] = tested on: Enterococcus faecalis (ATCC-29212); assay: MIC by microdilution against Enterococcus faecalis ATCC-29212; type: cell-based; details: unit not given in Table 4 (Table 3, same method: μg/ml)
Method: (§1) A standard microdilution method (NCCLS, 2000; Document M7-A5) was used to determine the minimum inhibitory concentrations (MICs) against S. aureus, methicillin-resistant strains (MRSA); 1A-218, 1A-318, 1B-374, 1B-315, 1B-185, 1B387 (Simor et al. 1999 Can Commun Dis Rep; 25:105-108) and methicillin-sensitive strains (MSSA); ATCC-6538 and ATCC-29213. The MICs of some compounds were also determined against other Gram-positive bacteria: Enterococcus faecium (ATCC 51559), Enterococcus faecalis (ATCC-51299, ATCC-29212) and Staphylococcus epidermidis (ATCC-35983).
(§2) Mueller-Hinton broth (MHB) is recommended as the medium of choice for susceptibility testing of commonly isolated, rapidly growing aerobic organisms such as the Gram-positive bacteria included in this study. A “cation-adjusted Mueller-Hinton broth” (Ca-MHB) was prepared by first preparing standard MHB from a dehydrated base as recommended by the manufacturer.
(§3) Single colonies from fresh agar plates of the different bacterial cultures were sub-cultured overnight in 3 ml of Tryptic soy broth (TSB) at 37° C. with shaking at 250 RPM. After 18-20 hours of incubation, the absorbance at λ=600 nm (OD600) were determined for each culture and adjusted to a final OD600=0.1 (4.2×10^7 cfu/ml). Bacterial suspensions were then diluted 1:200 in sterile Ca-MHB for the in vitro susceptibility test, with each well of the microtitre plate containing approximately 2×10^5 cfu/ml.
(§4) Stock solutions of the different test compounds were prepared at concentrations of 1,280 μg/ml, 640 μg/ml, or 320 μg/ml in 50% DMSO (dimethyl sulfoxide). Serial two-fold dilutions were then prepared in 50% DMSO (the working concentrations were 1:10 of the stock concentrations in 100 μl culture suspensions). The filled microtitre plates were sealed in plastic bags and incubated at 35° C. for 24 hr in an ambient air incubator with shaking at 250 RPM. MIC values were determined as the lowest concentration where complete inhibition of the visible bacterial growth was observed by the unaided eye and confirmed by the measurement of the optical density (OD600).

[2] = tested on: Methicillin-Resistant Staphylococcus aureus (MRSA), CMRSA-1B; assay: MIC by sequential macrodilution (tube) broth method against MRSA; type: cell-based; parameters: key: (+): Positive visual bacterial growth; (−): Negative visual bacterial growth; details: 37° C. overnight
Method: (Nat. Committee for Clinical Laboratory Standards. Document M7-A5 2000, 20; 1-25). Bacterial suspensions containing 5×10^5 colony-forming units (CFU) were incubated with serial two-fold dilutions of each drug at 37° C. overnight, and growth was monitored visually. The range of MIC values among the triaryl-imidazole derivatives was 12.5-50 μg/ml.

MRSA-1B387 = assay: In vivo inhibition of MRSA, acute infection in immunosuppressed CB17-SCID mice; parameters: species or system Staphylococcus aureus; details: 5×10^6 MRSA-1B387 in 5% mucin, 50 mg/kg I.P. immediately and 3 hours after inoculation
Method: Triaryl-imidazole compounds were tested in vivo for antibacterial activity against MRSA in a model of acute infection using immunosuppressed mice. Suspensions of 400 μL containing 5×10^6 MRSA-1B387 bacteria in 5% mucin were injected into groups of 5-10 female, 8-14 weeks CB17-SCID mice. Under these conditions bacterial infection produced 80-100% lethality in less than 48 hours. Each group of inoculated mice was treated with 50 mg/kg of the respective compound intraperitoneally (I.P.) immediately and 3 hours after bacterial inoculation.

[3] = tested on: Staphylococcus epidermidis (ATCC-35983); assay: MIC by microdilution against Staphylococcus epidermidis; type: cell-based; details: unit not given in Table 4 (Table 3, same method: μg/ml)
Method: as §1, §2, §3, §4

[4] = tested on: Enterococcus faecium (ATCC-51559); assay: MIC by microdilution against Enterococcus faecium; type: cell-based; details: unit not given in Table 4 (Table 3, same method: μg/ml)
Method: as §1, §2, §3, §4

[5] = tested on: Enterococcus faecalis (ATCC-51299); assay: MIC by microdilution against Enterococcus faecalis ATCC-51299; type: cell-based; details: unit not given in Table 4 (Table 3, same method: μg/ml)
Method: as §1, §2, §3, §4

[6] = tested on: multi-drug resistant Staphylococcus aureus (CMRSA-1B); assay: Bactericidal effect against MRSA (CFU plating on TSA); type: cell-based; details: overnight with compound, plated on TSA, CFU count (FIG. 1)
Method: Serial dilutions of liquid cultures were incubated with the compounds at 37° C. overnight and then plated on Tryptic Soy Agar (TSA) plates. After incubation for 17 hours at 37° C., the number of live bacteria was calculated from the number of colonies grown per milliliter of culture and expressed as colony-forming units (CFU).

[7] = type: in vivo; details: mice; injected 200 mg/kg per day
Method: In vivo acute toxicity tests were conducted using compounds 1, 2, 3 and 4. Mice were injected with each of the above compounds at a concentration of 200 mg/kg per day.

[8] = tested on: S. aureus, MRSA 1A-218, 1A-318, 1B-374, 1B-315, 1B-185, 1B387 and MSSA ATCC-6538, ATCC-29213; assay: MIC by standard microdilution method against S. aureus (MRSA and MSSA strains); type: cell-based; details: Staphylococcus aureus
Method: as §1, §2, §3, §4

MRSA 1B-387 [9] = assay: In vivo anti-bacterial activity, ICR mice inoculated I.P. with MRSA, oral treatment; details: Staphylococcus aureus
MRSA 1B-387 [10] = assay: as above; details: Staphylococcus aureus; remark: listed apart in the source
Method: For in vivo studies, groups of 5-10 female ICR mice (6-7 weeks) were inoculated intraperitonially with 3-8×10^7 CFU MRSA 1B-387 per mouse in 400 μl of 5% mucin. The test compounds at concentrations of 50 or 100 mg/kg were administered orally immediately after the bacterial inoculation and again 3 hours later. The selected dosages were administered twice daily throughout the experiment. The efficacy of the treatment was evaluated by comparison of mortality between the experimental and control groups (Table 5).

[11] = against all 8 strains of S. aureus tested except where indicated, microdilution, Ca-MHB, 35° C., 24 hr, read-out: MIC

Compound: Cc1[nH]c2ccccc2c1-c1nc(-c2ccccc2)c(-c2ccccc2)[nH]1 [Compound 2]
- MIC [1]: 16
- visual bacterial growth ([2]; Conc. 3.12 μg/ml): +
- visual bacterial growth ([2]; Conc. 6.25 μg/ml): +
- visual bacterial growth ([2]; Conc. 12.50 μg/ml): −
- visual bacterial growth ([2]; Conc. 25.00 μg/ml): −
- visual bacterial growth ([2]; Conc. 50.00 μg/ml): −
- visual bacterial growth ([2]; Conc. 100.00 μg/ml): −
- Survival (%) (MRSA-1B387): 80%
- MIC [3]: 16
- MIC [4]: 16
- MIC [5]: 16
- bactericidal or bacteriostatic effect at the corresponding MIC [6]: bactericidal effect
- acute toxicity (symptoms of sickness, total weight, organ weight and appearance) [7]: no toxic effects
- MIC [8, 11]: 8 to 16 µg/mL (≈ 22.9 to 45.8 µM)

- MIC [1]: 8
- melting point: 165 to 167 °C
- MIC [3]: 4
- MIC [4]: 8
- MIC [5]: 8
- MIC [8, 11]: 4 µg/mL (≈ 9.56 µM)
Compound: Cc1[nH]c2ccccc2c1-c1nc(-c2ccc(Cl)cc2)c(-c2ccc(Cl)cc2)[nH]1 [Compound 19]

- melting point: 155 to 158 °C
- MIC [8, 11]: > 128 µg/mL
Compound: Brc1ccc2[nH]cc(-c3nc(-c4ccc(-c5ccccc5)cc4)c(-c4ccc(-c5ccccc5)cc4)[nH]3)c2c1 [Compound 41]

Compound: Brc1ccc2[nH]cc(-c3nc4c5ccccc5c5ccccc5c4[nH]3)c2c1 [Compound 45]
- responders at 200 mg/kg (MRSA 1B-387 [9]): 40%
- responders at 200 mg/kg (MRSA 1B-387 [9]; read-out: Survival %): 40%
- responders at 100 mg/kg (MRSA 1B-387 [10]): 10%
- responders at 100 mg/kg (MRSA 1B-387 [10]; read-out: Survival %): 20%
- MIC ([8]; 24 h): 0.5 µg/mL (≈ 1.21 µM)
